Measured values: article PMC9166630, “SAR Probing of KX2-391 Provided Analogues With Juxtaposed Activity Profile Against Major Oncogenic Kinases” (Frontiers in Oncology, 2022)

Legend:
ERK1/2 = test: Human phosphokinase array, ERK1/2; assay type: cell-based
Source text: (§1) The kinome tree representation (Figure 7C), which was generated by raising the Kinase Score cut-off to >1.2, confirmed that, unlike tirbanibulin and our prototype molecule KX1-136, 4e’s effects were more observable on kinases other than the Src family such as the Eph and TEC families. […] Therefore, we screened compound 4e using the Human Phospho-Kinase Array® kit from R&D systems (Minneapolis, MN, USA). In this system, 35 phosphorylated YK and serine-threonine kinase (STK) enzymes in the untreated (control) and treated (test) HL60 cell lysates were captured on nitrocellulose membrane, pre-spotted with phosphokinase-specific capture antibodies, and then visualized by detection antibody cocktails (Figure 8). The difference in the spot intensity between untreated (control) and treated cells is proportional to change in the amount of the phosphorylated protein induced by 4e.
(§2) The phosphorylation profile of 48 kinases was performed using the Proteome Profiler Human Phospho-Kinase Antibody Array Kit by R&D Systems (Minneapolis, MN, USA) according to the protocol. Briefly, the total cellular protein was extracted using the Lysis buffer and was quantified using Bio-Rad DC Protein Assay kit (Hercules, CA, USA). Nitrocellulose membrane set (A&B), pre-spotted with kinase-specific capture antibodies, were first blocked with Array Buffer-1 at RT for 30 min on a rocking platform shaker. Approximately 600 µg of protein concentrate was diluted in the buffer provided and was added onto the membrane set, and the membranes were incubated overnight at 4°C in an 8-well plate. Subsequently, membranes were washed with Wash Buffer and incubated with appropriate Detection Antibody cocktails for 2 h at RT. Streptavadin-HRP (1:2000) was added onto membranes and incubated for 30 min at RT. Membranes were washed, and Chemiluminescent Detection Reagents 1&2 were applied in equal volumes for detection. The signals were detected on C-DiGit®Blot Scanner (LI-COR, Odyssey Imaging Systems, Lincoln, Nebraska, USA) using Image Studio 5.0 software.

JNK1/2/3 = test: Human phosphokinase array, JNK1/2/3; assay type: cell-based
Source text: as §1, §2

HSP27 = test: Human phosphokinase array, HSP27; assay type: cell-based
Source text: as §1, §2

AKT 1/2/3 = test: Human phosphokinase array, AKT 1/2/3; assay type: cell-based
Source text: as §1, §2

ITK = biological target: T1, ITK (Homo sapiens, UniProt Q08881); test: PamChip tyrosine kinase microarray, ITK; assay type: biochemical; details: 4e 0.1 µM, HL60 lysate
T1 construct: endogenous in cells; host or cells: HL60 lysate
T1 sequence (Q08881 1-620): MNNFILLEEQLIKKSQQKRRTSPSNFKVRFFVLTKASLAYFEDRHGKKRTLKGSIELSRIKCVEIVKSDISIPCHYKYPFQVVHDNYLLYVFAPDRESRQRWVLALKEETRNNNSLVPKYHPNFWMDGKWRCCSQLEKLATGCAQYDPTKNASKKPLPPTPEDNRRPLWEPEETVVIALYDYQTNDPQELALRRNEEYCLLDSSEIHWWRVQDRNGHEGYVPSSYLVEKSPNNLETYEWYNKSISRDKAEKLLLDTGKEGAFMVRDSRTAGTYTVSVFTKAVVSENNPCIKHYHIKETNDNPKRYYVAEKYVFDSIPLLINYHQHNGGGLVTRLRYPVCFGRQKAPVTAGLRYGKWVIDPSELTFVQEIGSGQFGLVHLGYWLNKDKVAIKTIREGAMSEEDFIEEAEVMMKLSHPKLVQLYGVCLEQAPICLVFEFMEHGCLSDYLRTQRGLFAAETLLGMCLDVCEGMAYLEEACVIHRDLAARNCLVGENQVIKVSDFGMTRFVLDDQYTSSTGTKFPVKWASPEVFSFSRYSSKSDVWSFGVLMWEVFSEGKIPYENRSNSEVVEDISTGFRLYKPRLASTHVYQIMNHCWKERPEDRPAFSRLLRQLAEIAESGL
Protocol: (§3) The changes in kinase activities induced by treatment with 4e were monitored within the HL60 cell lines using PamGene’s (Hertogenbosch, Netherlands) PamChip® peptide microarray profiler, which quantifies the activities of 144 tyrosine kinases (YK) ([29], [30]) (Figure 7). Results are provided as a log fold change (LFC) heatmap and Mean Kinase Statistic. From the LFC it is apparent that compound 4e, at a concentration of 0.1 µM, induced sizable changes to the activity of several kinases within the cell signaling YK profile (Figure 7A).
(§4) An Upstream Kinase tool was used to generate a putative list of kinases responsible for phosphorylating the phospho-sites on the PamChip (Figure 7B) ([31]). It is an interpretation and is highly dependent on the contents of the underlying phosphorylation databases. A Kinase Score was used for ranking kinases based on their significance and specificity in terms of the set of peptides used for the corresponding kinase. Kinase Statistics indicates the overall change of the peptide set that represents the kinase. Kinase statistics value <0 indicates lower kinase activity in the compound spiked lysate and vice versa ([32], [33]). Table 5 lists the 20 most changed kinases within treated HL60 cell lysates by 0.1 μM 4e, ranked according to their Kinase Score.
(§5) The compound 4e was spiked into HL60 cell lysate at different concentrations (0.001, 0.01, 0.1, 1, 10 and 50 μM). In addition, DMSO was also spiked in HL60 lysate at low concentration (2% v/v) as control. Samples were profiled on PamGene’s Tyrosine Kinase (PTK) arrays in technical replicates, covering a total of 196 phosphorylation sites. Frozen HL60 cultured cell pellet was sent to PamGene. At PamGene, cells were lysed using a lysis buffer and proteases inhibitors cocktail. Protein concentration was measured using standard Bradford assay as per PamGene SOPs. These lysates were further used for generating the PTK activity profiles. For spiking, 4e was received as powder form and dissolved in DMSO at PamGene facility followed by storing at -20°C in small aliquots. PamGene used its in-house bioinformatics toolbox in combination with other methods to generate hypotheses of signaling pathways.

CSK = biological target: T2, CSK (Homo sapiens, UniProt P41240); test: PamChip tyrosine kinase microarray, CSK; assay type: biochemical; details: 4e 0.1 µM, HL60 lysate
T2 construct: endogenous in cells; host or cells: HL60 lysate
T2 sequence (P41240 whole entry): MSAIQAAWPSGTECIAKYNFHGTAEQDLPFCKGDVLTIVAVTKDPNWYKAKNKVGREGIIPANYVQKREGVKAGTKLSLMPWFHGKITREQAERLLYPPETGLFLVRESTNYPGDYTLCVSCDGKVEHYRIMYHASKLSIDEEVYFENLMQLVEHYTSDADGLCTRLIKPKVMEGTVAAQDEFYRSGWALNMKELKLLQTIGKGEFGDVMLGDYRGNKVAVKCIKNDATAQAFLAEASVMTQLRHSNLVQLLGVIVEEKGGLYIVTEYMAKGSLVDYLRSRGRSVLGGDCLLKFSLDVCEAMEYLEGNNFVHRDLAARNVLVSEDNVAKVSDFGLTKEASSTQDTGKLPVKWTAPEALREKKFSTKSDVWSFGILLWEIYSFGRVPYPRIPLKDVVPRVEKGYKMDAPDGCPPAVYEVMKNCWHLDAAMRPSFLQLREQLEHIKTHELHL
Protocol: as §3, §4, §5

JAK1~b = biological target: T3, JAK1~b (Homo sapiens, UniProt P23458); test: PamChip tyrosine kinase microarray, JAK1~b; assay type: biochemical; details: 4e 0.1 µM, HL60 lysate
T3 construct: The compound 4e was spiked into HL60 cell lysate at different concentrations; endogenous in cells; host or cells: HL60 cell lysate
T3 sequence (P23458 whole entry): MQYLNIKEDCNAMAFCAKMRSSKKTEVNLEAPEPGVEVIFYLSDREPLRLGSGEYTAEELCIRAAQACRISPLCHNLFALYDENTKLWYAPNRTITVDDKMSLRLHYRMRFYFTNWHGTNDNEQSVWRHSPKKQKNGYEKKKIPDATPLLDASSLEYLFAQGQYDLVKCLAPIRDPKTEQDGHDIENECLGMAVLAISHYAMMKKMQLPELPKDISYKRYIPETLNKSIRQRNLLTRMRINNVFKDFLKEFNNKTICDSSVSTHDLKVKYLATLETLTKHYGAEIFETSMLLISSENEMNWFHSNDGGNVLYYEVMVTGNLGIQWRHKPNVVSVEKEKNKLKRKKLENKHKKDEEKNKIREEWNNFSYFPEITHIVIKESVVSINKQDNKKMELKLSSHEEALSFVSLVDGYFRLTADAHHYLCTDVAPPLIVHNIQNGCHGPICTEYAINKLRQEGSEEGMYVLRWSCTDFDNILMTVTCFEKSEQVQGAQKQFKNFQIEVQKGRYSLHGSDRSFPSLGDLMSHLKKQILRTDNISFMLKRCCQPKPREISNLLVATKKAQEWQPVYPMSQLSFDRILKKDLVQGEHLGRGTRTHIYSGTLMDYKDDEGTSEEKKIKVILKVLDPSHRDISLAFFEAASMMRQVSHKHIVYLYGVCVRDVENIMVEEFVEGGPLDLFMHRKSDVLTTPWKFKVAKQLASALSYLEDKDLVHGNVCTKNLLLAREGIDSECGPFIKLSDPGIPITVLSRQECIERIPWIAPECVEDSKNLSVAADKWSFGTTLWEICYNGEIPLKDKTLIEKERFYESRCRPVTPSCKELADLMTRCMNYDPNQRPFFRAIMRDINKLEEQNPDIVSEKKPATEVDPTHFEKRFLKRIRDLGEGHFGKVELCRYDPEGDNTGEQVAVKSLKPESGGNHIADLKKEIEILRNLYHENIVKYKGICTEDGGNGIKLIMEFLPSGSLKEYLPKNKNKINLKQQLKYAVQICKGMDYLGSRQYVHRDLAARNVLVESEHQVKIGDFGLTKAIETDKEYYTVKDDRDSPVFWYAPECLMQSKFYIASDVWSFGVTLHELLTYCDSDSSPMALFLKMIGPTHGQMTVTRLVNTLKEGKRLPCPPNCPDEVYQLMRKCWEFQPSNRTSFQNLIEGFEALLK
Protocol: as §3, §4, §5

SMILES: O=C(Cc1ccc(NC(=O)c2cccc(Cl)c2)cc1)NCc1ccccc1 [Compound 4e, N-(4-(2-(benzylamino)-2-oxoethyl)phenyl)-3-chlorobenzamide]
- reduction of ERK1/2 activity (ERK1/2; HL60, kinase profiling): > 99%
- phosphokinase signal after 4e exposure, ERK1/2 (ERK1/2; HL60 cell lysate, treated): 1.05
- % Change, ERK1/2 (ERK1/2; treated vs untreated HL60): -99.41%
- Change in Signal, ERK1/2 (ERK1/2; treated vs untreated HL60): -177.83
- phosphokinase signal after 4e exposure, JNK1/2/3 (JNK1/2/3; HL60 cell lysate, treated): 20.91
- % Change, JNK1/2/3 (JNK1/2/3; treated vs untreated HL60): -50.61%
- Change in Signal, JNK1/2/3 (JNK1/2/3; treated vs untreated HL60): -21.43
- decrease of Hsp27 Ser78 and Ser82 phosphorylation (HSP27; HL60, versus control): 92.3%
- phosphokinase signal after 4e exposure, HSP27 (HSP27; HL60 cell lysate, treated): 3.71
- % Change, HSP27 (HSP27; treated vs untreated HL60): -92.31%
- Change in Signal, HSP27 (HSP27; treated vs untreated HL60): -44.51
- increased phosphorylation of Akt1/2/3 at Thr308 and Ser473 compared to control (AKT 1/2/3; HL60, versus no treatment): > 117 fold
- phosphokinase signal after 4e exposure, AKT 1/2/3 (AKT 1/2/3; HL60 cell lysate, treated): 22.29
- % Change, AKT 1/2/3 (AKT 1/2/3; treated vs untreated HL60): 11783.08%
- Change in Signal, AKT 1/2/3 (AKT 1/2/3; treated vs untreated HL60): 22.10
- Mean Final Score (ITK): 1.9173
- Mean Kinase Statistic (ITK): -0.5666
- Mean Significance Score (ITK): 1.0723
- Mean Specificity Score (ITK): 0.8451
- Mean Final Score (CSK): 1.9356
- Mean Kinase Statistic (CSK): -0.5346
- Mean Significance Score (CSK): 1.2107
- Mean Specificity Score (CSK): 0.7249
- Mean Final Score (JAK1~b): 1.3907
- Mean Kinase Statistic (JAK1~b): -0.5828
- Mean Significance Score (JAK1~b): 0.8736
- Mean Specificity Score (JAK1~b): 0.5171
